Test results taken from ChEMBL document CHEMBL1914363, “Identification of a naturally occurring quinazolin-4(3H)-one firefly luciferase inhibitor” (J Nat Prod, 2011).
The source made the active and inactive calls. No cut-off for these calls is given here.

How the values were obtained:
[1] = target: T1, Luciferin 4-monooxygenase (Luciola lateralis, UniProt Q01158); assay: Inhibition of firefly luciferase by ATPlite assay in absence of AMPK; set-up: species or system Aquatica lateralis
T1 sequence (Q01158 whole entry): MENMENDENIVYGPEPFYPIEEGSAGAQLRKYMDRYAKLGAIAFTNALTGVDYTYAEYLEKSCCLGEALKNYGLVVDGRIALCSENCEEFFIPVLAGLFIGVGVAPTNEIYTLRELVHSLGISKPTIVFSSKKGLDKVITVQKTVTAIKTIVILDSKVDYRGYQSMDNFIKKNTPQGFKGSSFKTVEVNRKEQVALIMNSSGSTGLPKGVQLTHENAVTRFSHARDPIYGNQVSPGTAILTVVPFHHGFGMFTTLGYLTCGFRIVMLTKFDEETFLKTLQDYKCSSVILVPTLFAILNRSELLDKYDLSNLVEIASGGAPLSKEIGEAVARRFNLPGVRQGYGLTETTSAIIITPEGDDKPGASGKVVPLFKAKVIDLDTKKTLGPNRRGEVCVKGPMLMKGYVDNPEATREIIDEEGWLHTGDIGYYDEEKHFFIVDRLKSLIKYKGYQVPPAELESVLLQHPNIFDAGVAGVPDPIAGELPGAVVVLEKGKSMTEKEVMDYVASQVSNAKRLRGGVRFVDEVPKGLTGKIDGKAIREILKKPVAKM

[2] = target: T2, Luciferin 4-monooxygenase (Luciola lateralis) (UniProt Q01158); assay: Inhibition of firefly luciferase by ATPlite assay in presence of AMPK; details: Aquatica lateralis
T2 sequence (whole entry): T1 sequence (Q01158 whole entry)

- EC50 [1]: 730 nM
- inhibition [2]: Active
Structure (SMILES): CNc1ccc(-c2nc3ccccc3c(=O)[nH]2)cc1
